Experimental data: patent publication US7862815B2, “Methods for inhibiting angiogenesis with inhibitors of proadrenomedullin N-terminal 20 peptide (PAMP)” (The United States of America as represented by the …, priority 2002, dated 2011)

Assays:
[1] = tested on: Human dermal microvascular endothelial cells; assay: Calcium measurements (ATP-induced calcium flux); format: cell-based; settings: 10 nM PAMP, 1 mM ATP
Protocol: Human dermal microvascular endothelial cells were obtained from Cell Applications, Inc. and cultured in 96-well plates at 1.0×10^5 cells per well. The cells were loaded for 60 minutes at room temperature with the fluorescent dye FLIPR (Molecular Devices) and then transferred to the FlexStation II (Molecular Devices) for analysis. The test compounds were prepared in another plate at a concentration of 5× and were added to the proper wells by the robotic arm of the FlexStation II. Fluorescence was measured every five seconds in each well and recorded. One mM ATP (Sigma) was used as a calcium agonist (Lau et al., Life Sci. 73, 20 19-2028, 2003).

nude mice = assay: Directed in vivo Angiogenesis Assay (DIVAA), Example 1; settings: for FITC-dextran fluorescence of implants (angiogenesis): mean ± standard deviation of five implants
Protocol: Silicone tubes (0.15 mm outside diameter, New Age Industries, Southampton, Pa.) are cut to 1 cm in length, and one end of each tube is closed with liquid silicone and dried for 24 hours, then autoclaved. A dilution of test substances is prepared in matrigel in sterile cold Eppendorf tubes. Tubes are filled with a Hamilton syringe. Nude mice are anesthetized, and a pocket is made in the dorsal skin of each animal. The tubes are then implanted with the open end first, and the wounds are then sealed.
After nine to eleven days, the tail veins are injected with FITC-dextran to visualize the blood vessels, and the dye is allowed to distribute throughout the vasculature for about 20 minutes. Mice are then euthanized with CO2 and the skin pockets are removed.
Skin is then dissected, keeping the vessels near the mouth of the tube. The matrigel is then displaced from the tube, incubated at 37° C. in the presence of dispase, then vortexed, centrifuged, and matrigel aliquots are transferred into 96-well plates for fluorescent emission. Fluorescence is read in a fluorimeter.
This example provides a description of use of the Directed in vivo Angiogenesis Assay (DIVAA; see Martinez et al., J. Natl. Cancer Inst. 2002; 94:1226-1237) to measure the angiogenic potential of PAMP in comparison to known angiogenesis factors.
Implants were prepared as follows: Silicone tubes (0.15 mm outside diameter, New Age Industries, Southampton, Pa.) were cut to 1 cm in length. One end of each tube was closed with liquid silicone and dried for 24 hours to allow fumes to diffuse out. Tubes were then autoclaved.
A dilution of test substances was prepared in matrigel in sterile cold Eppendorf tubes. A stock of 25× was prepared to avoid diluting the matrigel too much. Tubes were filled with a Hamilton syringe. All the material was kept sterile and cold. Each tube required 18-20 μl. The matrigel was allowed to solidify at 37° C. for at least 30 minutes.
Nude mice were anesthetized with Ketamine and Xylazine (1:4 ratio), 50 μl per mouse, […]. A pocket was made in the dorsal skin of each animal with scissors. The tubes were implanted with the open end first. The wounds were then sealed with surgical clips. Mice were kept warm until they recovered consciousness. Mice were then maintained for nine to eleven days.
Mice were placed under a heating lamp to dilate their tail veins. Tail veins were injected with 25 mg/ml FITC-dextran (Sigma), 100 μl/mouse. After about 20 minutes, the dye had been distributed. Mice were then euthanized with CO2 and the skin pockets were removed and kept in a PBS-wet cloth.
Skin was then dissected out, keeping the vessels near the mouth of the tube. The tube was placed in an Eppendorf tube containing 300 μdispase (Collaborative Biomedical Products). Then the matrigel was displaced from the tube; these were frozen until they were needed later.
Matrigels were thawed and incubated at 37° C. for one hour, then vortexed, centrifuged, and 100 μl was transferred into a 96-well plate for fluorescent emission (black sides). Excitation for FITC was 485 nm. Emission was 535 nm. Fluorescence was read in a fluorometer.

human endothelial cells = assay: Cord formation assay on matrigel; format: cell-based; settings: overnight incubation on matrigel, FIG. 6C
Protocol: Human endothelial cells were seeded at 2.0×10^5 cells per well over a solid layer of matrigel covering the bottom of a 24-well plate in the presence or absence of the test peptides as described (Nam et al., Phytother. Res. 17, 107-111). After an overnight incubation, the tubular structures were photographed (three pictures per well) and the number of knots per photographic field were counted as a measure of lattice complexity.

[2] = tested on: aortic rings of 13 day-old chicken embryos; assay: Chick embryo aortic arch assay; format: cell-based; settings: for sprouting of new vessels versus control: 1 nM peptide
Protocol: The chick embryo aortic arch assay is an ex vivo angiogenesis assay that was performed as previously described (Isaacs, et al., J. Biol. Chem., 16; 277(33):29936-44, 2002; Auerbach et al., Clin. Chem. 49, 32-40, 2003). Briefly, aortic rings of approximately 0.8 mm in length were prepared from the five aortic arches of 13 day-old chicken embryos (Truslow Farms) and the soft connective tissue of the adventitia layer was carefully removed with tweezers. Each aortic ring was placed in the center of a well in a 48-well plate and covered with 10 μl matrigel (BD Biosciences). After the matrigel solidified, 300 μl of growth factor-free human endothelial-SFM basal growth medium (Invitrogen) containing the proper concentration of the test substances were added to each well. The plates were kept in a humid incubator at 37° C. in 5% CO2 for 24-36 hours. Microvessels sprouting from each aortic ring were photographed in an inverted microscope and the area covered by the newly formed capillaries was estimated by image analysis.

Row | Substance | effect on ATP-induced calcium response [1] | FITC-dextran fluorescence of implants (angiogenesis) (nude mice; 10 pM peptide in matrigel) | FITC-dextran fluorescence of implants (angiogenesis) (nude mice; 1 nM peptide in matrigel) | FITC-dextran fluorescence of implants (angiogenesis) (nude mice; 100 nM peptide in matrigel) | FITC-dextran fluorescence of implants (angiogenesis) (nude mice; 1 fM peptide in matrigel) | FITC-dextran fluorescence of implants (angiogenesis) (nude mice; 100 fM peptide in matrigel) | angiogenic potency compared with VEGF or AM (nude mice; Table 2, FIG. 1, FIG. 2) | angiogenic potency relative to VEGF and bFGF (nude mice; on a molar basis, based on embryonic chick aortic ring assay and DIVAA) | efficiency in inducing cord formation (knots per field) (human endothelial cells) | sprouting of new vessels versus control [2] | concentrations inducing increase of sprouting blood vessels over untreated controls ([2]; chick embryo aortic rings in matrigel, 24-36 hours)
1 | proadrenomedullin N-terminal 20 peptide (ARLDVASEFRKKWNKWALSR; listed as Homo sapiens) [PAMP, 20 amino-acid molecule originating from the post-translational processing of pre-proadrenomedullin; synthetic human, purchased from Bachem] | greatly reduced | 7611.2 ± 3747 arbitrary fluorescence units | 10122.2 ± 3970 arbitrary fluorescence units | 22283.6 ± 6746 arbitrary fluorescence units | 6837.6 ± 1982 arbitrary fluorescence units | 7044 ± 1727 arbitrary fluorescence units | significantly more potent | roughly one million | modest effect | larger than the control | ≥ 1 nM
2 | vascular endothelial growth factor [VEGF] |  | 863.4 ± 437 arbitrary fluorescence units | 8435 ± 3931 arbitrary fluorescence units | 11206 ± 3735 arbitrary fluorescence units | 1563.2 ± 1643 arbitrary fluorescence units | 571 ± 785 arbitrary fluorescence units |  |  | most efficient | do not promote any significant proliferation over the control | 
3 | Adrenomedullin [AM] |  | 1033.2 ± 343 arbitrary fluorescence units | 9590 ± 3164 arbitrary fluorescence units | 13490 ± 2731 arbitrary fluorescence units | 496 ± 275 arbitrary fluorescence units | 787 ± 130 arbitrary fluorescence units |  |  |  | do not promote any significant proliferation over the control | 
